This is an account of results in patent US5935636A, “Trehalose and its production and use” (Kabushiki Kaisha Hayashibara Seibutsu Kagaku Kenkyujo, priority 1994, dated 1999).

Where a name gives a salt, the structure may show the parent alone. Read-outs that look alike come from different tables or passages of the source.

For data set [1], the target named is T1, maltose/trehalose conversion enzyme derived from Pimelobacter species R48 (Pimelobacter sp., UniProt P72235).
T1 construct: The culture obtained in Experiment 1 was centrifugally separated to collect the cells; made in house; host or cells: native producer Pimelobacter species R48 (FERM BP-4315), purified from disrupted cells
T1 sequence (P72235 1-573): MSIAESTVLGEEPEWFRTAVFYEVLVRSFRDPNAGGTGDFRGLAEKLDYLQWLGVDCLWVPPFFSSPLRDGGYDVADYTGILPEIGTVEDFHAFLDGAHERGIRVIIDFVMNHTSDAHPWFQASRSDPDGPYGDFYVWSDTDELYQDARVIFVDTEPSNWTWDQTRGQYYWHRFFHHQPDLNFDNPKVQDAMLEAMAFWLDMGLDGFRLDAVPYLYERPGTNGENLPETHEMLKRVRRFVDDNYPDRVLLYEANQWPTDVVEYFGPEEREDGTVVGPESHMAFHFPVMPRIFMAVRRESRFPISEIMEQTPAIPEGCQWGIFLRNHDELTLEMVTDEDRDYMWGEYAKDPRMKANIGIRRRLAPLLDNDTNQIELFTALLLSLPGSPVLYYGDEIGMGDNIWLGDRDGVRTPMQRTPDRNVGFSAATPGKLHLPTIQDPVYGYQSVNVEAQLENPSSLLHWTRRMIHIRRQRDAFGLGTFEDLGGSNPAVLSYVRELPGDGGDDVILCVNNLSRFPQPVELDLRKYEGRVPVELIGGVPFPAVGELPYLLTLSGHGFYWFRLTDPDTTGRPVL
Nature of the data set: Inhibition of enzymatic activity. It counts as biochemical. The procedure:
(§1) Maltose/trehalose conversion enzymes are assayed as follows: 1 ml of 20 w/v % maltose as substrate in 10 mM phosphate buffer (pH7.0) is added with 1 ml enzyme liquid, allowed to react at 25° C., 35° C. or 60° C. for 60 minutes and heated at 100° C. for 10 minutes to suspend the reaction. The reaction liquid is accurately diluted by 11-times in 50 mM phosphate buffer (pH7.5) and 0.4 ml of the diluted liquid is added with 0.1 ml of 1 unit/ml trehalase solution, incubated at 45° C. for 120 minutes and determined for glucose level by the glucose oxidase method. […] The amount of the trehalose formed by maltose/trehalose conversion enzyme is estimated with the increased amount of glucose as determined by the above measurement and one unit of the enzyme is defined as the amount of enzyme that forms one micromole of trehalose for one minute.
Effects of temperature and pH on the activity of the enzyme were investigated in accordance with the assay method. […] The thermal stability of the enzyme was determined by incubating the enzyme in 50 mM phosphate buffer (pH7.0) at different temperatures for 60 minutes, cooling with water and assaying the residual activities. While the pH stability was determined by incubating at 20° C. for 60 minutes in 50 mM phosphate buffer with different pH levels, adjusting to pH7.0 and assaying the residual enzyme activities.

Data set [2] deals with maltose/trehalose conversion enzyme derived from Pseudomonas putida H262. The class given is biochemical. Here is the method: as §1
Effects of temperature and pH on the activity of the enzyme were investigated in accordance with the assay method. […] The thermal stability of the enzyme was determined by incubating the enzyme in 50 mM phosphate buffer (pH7.0) at different temperatures for 60 minutes, cooling with water and assaying the residual activities. While the pH stability was determined by incubating at 35° C. for 60 minutes in 50 mM phosphate buffer with different pH levels, adjusting to pH7.0 and assaying the residual enzyme activities.

Data set [3] deals with T2, maltose/trehalose conversion enzyme derived from Thermus aquaticus (ATCC33923) (Thermus thermophilus, UniProt O06458).
T2 construct: The culture obtained in Experiment 15 was centrifugally separated to collect the cells; made in house; host or cells: native producer Thermus aquaticus (ATCC33923), purified from disrupted cells
T2 sequence (O06458 1-963): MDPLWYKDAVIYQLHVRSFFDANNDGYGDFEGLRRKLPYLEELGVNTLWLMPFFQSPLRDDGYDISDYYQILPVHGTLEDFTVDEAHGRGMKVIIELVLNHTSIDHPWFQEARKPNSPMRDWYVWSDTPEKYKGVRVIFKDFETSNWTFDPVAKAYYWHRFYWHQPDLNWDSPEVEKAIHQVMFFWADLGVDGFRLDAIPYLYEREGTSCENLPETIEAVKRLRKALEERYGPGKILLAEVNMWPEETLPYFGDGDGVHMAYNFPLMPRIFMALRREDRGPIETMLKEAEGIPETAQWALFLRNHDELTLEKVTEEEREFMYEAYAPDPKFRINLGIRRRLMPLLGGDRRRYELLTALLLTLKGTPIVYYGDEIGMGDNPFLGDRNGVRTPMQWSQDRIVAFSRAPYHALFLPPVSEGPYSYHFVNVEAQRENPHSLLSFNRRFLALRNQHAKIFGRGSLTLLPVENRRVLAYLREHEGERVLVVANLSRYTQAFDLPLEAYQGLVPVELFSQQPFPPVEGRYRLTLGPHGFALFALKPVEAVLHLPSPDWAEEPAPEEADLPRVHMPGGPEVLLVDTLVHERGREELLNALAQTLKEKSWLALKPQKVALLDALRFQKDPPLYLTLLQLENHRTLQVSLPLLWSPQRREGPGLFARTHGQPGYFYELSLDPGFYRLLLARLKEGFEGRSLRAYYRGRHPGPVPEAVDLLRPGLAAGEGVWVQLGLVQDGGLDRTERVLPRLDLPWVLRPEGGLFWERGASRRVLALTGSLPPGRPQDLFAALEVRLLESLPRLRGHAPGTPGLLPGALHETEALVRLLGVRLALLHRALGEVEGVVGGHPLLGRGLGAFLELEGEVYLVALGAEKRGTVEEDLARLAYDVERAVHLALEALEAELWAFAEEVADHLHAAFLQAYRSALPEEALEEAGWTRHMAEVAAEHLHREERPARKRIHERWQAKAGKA
Nature of the data set: Inhibition of enzymatic activity. It counts as biochemical. Here is the method: as §1
Effects of temperature and pH on the activity of the enzyme were investigated in accordance with the assay method. […] The thermal stability of the enzyme was determined by incubating the enzyme in 50 mM phosphate buffer (pH7.0) at different temperatures for 60 minutes, cooling with water and assaying the residual activities. While the pH stability was determined by incubating at 60° C. for 60 minutes in 50 mM phosphate buffer with different pH levels, adjusting to pH7.0 and assaying the residual enzyme activities.

Data set [4] deals with T3, purified maltose/trehalose conversion enzyme from Pimelobacter species R48 (Pimelobacter sp., UniProt P72235).
T3 construct: The culture obtained in Experiment 1 was centrifugally separated to collect the cells; made in house; host or cells: native producer Pimelobacter species R48 (FERM BP-4315), purified from disrupted cells
T3 sequence (P72235 1-573): T1 sequence (P72235 1-573)
Nature of the data set: Action on a variety of saccharides (substrate feasibility, TLC). The class given is biochemical. Conditions: 20° C., pH7.0, 24 hours. Here is the method:
(§2) A variety of saccharides were tested for feasibility as substrate.
(§3) Each solution was added with 2 units/g substrate solid of a purified maltose/trehalose conversion enzyme obtained by the method in Experiment 2, adjusted to give respective substrate concentrations of 5 w/v % and reacted at 20° C. and pH7.0 for 24 hours. Before and after the reaction the solutions were subjected to thin-layer chromatography (TLC) on "[…] 60", an aluminum plate, width and length of 20 cm respectively, commercialized by Merck & Co., Inc., New Jersey, USA, to check the enzymatic action on respective saccharides. TLC was developed at ambient temperature with a mixture solvent of 1-butanol, pyridine and water (6:4:1 by volume). Coloration was carried out by first spraying 20% sulfuric acid/methanol solution, then heating at 110° C. for 10 minutes.

Data set [5] concerns purified enzyme from Pseudomonas putida H262. The data set is described as above. The class given is biochemical. Conditions: method of Experiment 4, reaction temperature 35° C. Here is the method: as §2, §3
A variety of saccharides were tested for feasibility as substrate for the purified enzyme from Pseudomonas putida H262 obtained in Experiment 10 in accordance with the method in Experiment 4 except that the reaction temperature was set to 35° C. As the result, like the enzyme from Pimelobacter species R48, the enzyme from Pseudomonas putida H262 acted on only maltose and trehalose to convert maltose to trehalose as well as to convert trehalose to maltose.

Data set [6] relates to partially-purified enzymes derived from conventional microorganisms of the genus Thermus. In words: Action on a variety of saccharides, partially-purified enzymes. The following applies: method of Experiment 18. The class given is biochemical. Here is the method: Among conventional microorganisms, the specified microorganisms which had been confirmed for production of the maltose/trehalose conversion enzyme according to the present invention were cultivated in flasks for 48 hours in accordance with the method in Experiment 15. Respective cultures were checked for enzymatic activity and then subjected to cell disrupter in accordance with the method in Experiment 16 and the supernatants were dialyzed to obtain partially-purified enzymes which were then investigated for properties in accordance with the method in Experiment 17.

Data set [7] in a line: Physicochemical properties of trehalose preparations: solubility. The following applies: in 25° C. water. Here is the method:
A high-purity trehalose prepared by the method in Experiment 8 was tested for physicochemical properties. […] These physical values were in good agreement with those of a simultaneously tested commercially-available crystalline trehalose hydrate, a product of Wako Pure Chemical Industries, Ltd., Osaka, Japan.

Data set [8] is described as follows: Test for assimilation in vivo (blood sugar and insulin levels). The following applies: healthy three men. Here is the method: In accordance with the method reported by Atsuji et al., Rinsho Eiyo (Clinical Nutrition), Vol.41, No.2, pp.200-208 (1972), 30g of the high-purity trehalose, purity of 99.8%, prepared in Experiment 8 was prepared into 20 w/v % aqueous solution and orally administered to healthy three men, age of 26, 27 and 30 years, after which their bloods were periodically sampled and measured for blood sugar and insulin levels. Glucose was used as control. […] Thus the trehalose and saccharide containing the same are suitable as saccharide source for energy supplement.

A further data set has as its system mice. Nature of the data set: Acute toxicity test. The class given is in vivo. Conditions: orally administered in mice, possible highest dose. Here is the method:
An acute toxicity test was conducted on a high-purity trehalose prepared in Example A-6, where it was orally administered in mice. As the result, trehalose was a low toxic substance causing no death even in the possible highest dose. Thus its LD50 would be briefly 50 g/kg or higher.

Where [9] appears, read: 30 g as 20 w/v % aqueous solution, oral.

As for `[Cu+2]` [Cu^2+], the Inhibition of activity result in data set [1] (1 mM) is “Inhibited”; in data set [2] (1 mM), “Inhibited”; in [3] (1 mM) it was “Inhibited”; in data set [3] (1 mM, listed as C^2+), “inhibited”.

Regarding `[Hg+2]` [Hg^2+], the Inhibition of activity entry in data set [1] (1 mM), in [2] (1 mM) and in [3] (1 mM) was “Inhibited” throughout.

For `OC[C@H]1O[C@H](O[C@H]2O[C@H](CO)[C@@H](O)[C@H](O)[C@H]2O)[C@H](O)[C@@H](O)[C@@H]1O` [trehalose, alpha,alpha-trehalose], the “action of the enzyme on saccharides (in words)” value in [4] and in data set [5] was “acted on” throughout. In addition, in data set [6], the “action of the enzymes on saccharides (in words)” value is “acted on”. For the same molecule, the “solubility as anhydrous substance” value in data set [7] amounted to 77.0 g. The “time at which blood sugar level reached maximum after administration” value in data set [8] (setting [9]) is 0.5 to 1 h. Moreover, the “time at which insulin level reached maximum after administration” value in data set [8] (setting [9]) fell in the range of 0.5 to 1 h. For the same molecule, the “digestion, absorption and utilization (in words)” value in [8] (30 g oral, glucose as control) was “readily digested and absorbed and then metabolized and utilized as energy source”. Besides, the “death in acute toxicity test” value with mice is on record as “no death”.

For the molecule `NC(CO)(CO)CO` [Tris-HCl buffer, Tris-HCl], the Inhibition of activity entry in [1], in data set [2] and in data set [3] was “Inhibited” each time.

Turning to `OC[C@H]1O[C@H](O[C@H]2[C@H](O)[C@@H](O)[C@H](O)O[C@@H]2CO)[C@H](O)[C@@H](O)[C@@H]1O` [Maltose], the “action of the enzyme on saccharides (in words)” value in data set [4] and in data set [5] was “acted on” throughout. Also, the “action of the enzymes on saccharides (in words)” value in data set [6] is “acted on”.
